{
  "source": "patent US20050154537A1",
  "about": "“Methods, program products, and systems for single and multi-agent dosing and other related methods” (priority 2003, published 2005)",
  "format_in_all_cases": "in vivo",
  "key": {"[1]": {"system": "Platelets", "assay": "Lookup table: marker validity (nadir) window, Platelets", "conditions": "days elapsed between current dose and marker", "description": "(§1) A lookup table has been constructed (see above example), in the form of a table, to represent the relationship of each trial Agent and its qualified Clinical Markers. This table includes information regarding the Maximum Dose and the Inverse Marker Applicability for each Agent. The gray cells on the Cycle Dose Modifier indicate these values.\n(§2) The table also includes information regarding the nadir of applicability for each Agent—Marker combination. The range, in days and indicated as the Lower Limit and Upper limit, has been determined by calculating a percentage (20%) above and below the true nadir value when only a single value is known. Otherwise, the upper and lower nadir values are used. […] The values of Upper and Lower limits is shown as a property of the Association between Markers and Agents. The Relevancy of a Marker can be computed using the lookup table by comparing the number of days elapsed between the date of the application of the current dose and the date on which the Marker was taken to the upper and lower values for that Agent Marker Association. If the elapsed days are greater than or equal to the lower limit and less than or equal to the upper limit, then the calculations provided by the Cycle Dose Modifier are said to be relevant and thereby applicable as indicated in the yellow Marker Validity cell. The Relevancy of Cycle Dose Modifier Calculations for Agent 1 is based on the Validity of Marker for Agent 1 calculated by: =IF(and((($B13−B6)>=VLOOKUP(B$3,Validity!$A$3:$K$8,10)),((B$13−B6)<=VLOOKUP(B$3,Validity!$A$3:$K$8,11))),“valid”,“invalid”)"}, "[2]": {"system": "Neutrophil Count (ANC)", "assay": "Lookup table: marker validity (nadir) window, Neutrophil Count (ANC)", "conditions": "days elapsed between current dose and marker", "description": "as §1, §2"}, "[3]": {"system": "Hemoglobin (Hgb)", "assay": "Lookup table: marker validity (nadir) window, Hemoglobin (Hgb)", "conditions": "days elapsed between current dose and marker", "description": "as §1, §2"}, "[4]": {"system": "Neutrophil Count (ANC)", "assay": "Chemotherapeutic triplet cycle dose modifier (Taxol, Gemzar, Carboplatin), toxicity marker", "conditions": "patient on triplet", "description": "Table 3 illustrates a method of revising a drug dose in treating a patient with three pharamcologic and non-pharmacological modalities to optimize pharmacologic outcome, e.g., to reduce risk of an adverse drug event while assessing the clinical relevancy and validity of the measured surrogate markers. Previous Level of Toxicity-Efficacy (PLTE) is a value directly entered such as from a lab report. It is the numerical value of the marker of toxicity or efficacy reported at the previous dose cycle adjustment (evaluated at a specified elapsed time sufficient to capture the nadir of the dose effect). The surrogate marker is selected when the dose modifier is constructed. Current Level of Toxicity-Efficacy (CLTE) is a value directly entered such as from a lab report. It is the numerical value of the marker of toxicity or efficacy reported with the current dose cycle. The surrogate marker is that value that illustrates the expression of the toxicity or efficacy of the agent on a specific and pre-selected value determined when the dose modifier is constructed. […] If valid the value is fully appreciated and the dose modification can be calculated. […] The range, in days and indicated as the Lower Limit and Upper limit, has been determined by calculating a percentage (20%) above and below the true nadir value when only a single value is known. […]"}},
  "data": [
    {"smiles": "CC(=O)O[C@H]1C(=O)[C@@]2(C)[C@H]([C@H](OC(=O)c3ccccc3)[C@]3(O)C[C@H](OC(=O)[C@H](O)[C@@H](NC(=O)c4ccccc4)c4ccccc4)C(C)=C1C3(C)C)[C@]1(OC(C)=O)CO[C@@H]1C[C@@H]2O", "note": "[Taxol]", "values": [
      {"measurement": "Platelets LL", "setting": "[1]; lower limit of nadir range", "result": 8, "unit": "days"},
      {"measurement": "Platelets UL", "setting": "[1]; upper limit of nadir range", "result": 11, "unit": "days"},
      {"measurement": "Neutrophil Count (ANC) LL", "setting": "[2]; lower limit of nadir range", "result": 8, "unit": "days"},
      {"measurement": "Neutrophil Count (ANC) UL", "setting": "[2]; upper limit of nadir range", "result": 11, "unit": "days"},
      {"measurement": "Hemoglobin (Hgb) LL", "setting": "[3]; lower limit of nadir range", "result": 8, "unit": "days"},
      {"measurement": "Hemoglobin (Hgb) UL", "setting": "[3]; upper limit of nadir range", "result": 11, "unit": "days"},
      {"measurement": "Current Level of Toxicity/CLTEM1", "setting": "[4]; current cycle total dose Taxol 450.00, Gemzar 7000.00, Carboplatin 650.00, marker Oct. 30, 2004", "result": 0.80},
      {"measurement": "Previous Level of Toxicity/PLTEM1", "setting": "[4]; previous cycle total dose Taxol 400.00, Gemzar 8000.00, Carboplatin 600.00", "result": 0.40}
    ]}
  ]
}
